Experimental data published in patent publication US20080193402A1, “Depilatory Compositions” (priority 2005, published 2008).

Experiment: 2AET storage stability at 40° C. in different packages
Assay type: physicochemical
Description: The single phase depilatory was then packaged into two separate containers. The first was an aluminum can with a bag-on-valve system, while the second was a standard high density polyethylene bottle.
The 2AET levels were evaluated at initial, 1 month and 3 months after storage at 40° C. to determine stability profiles.

Compound: NCCS [Example 2AET, 2-aminoethanethiol]
- 2AET level (Example 13 single phase depilatory in HDPE (full), 1 month/40° C.): 6.7%
- 2AET level (Example 13 single phase depilatory in HDPE (full), 3 months/40° C.): 6.6%
- 2AET level (Example 13 single phase depilatory in HDPE (full), initial): 7.2%
- 2AET level (Example 13 single phase depilatory in HDPE (half), 1 month/40° C.): 6.3%
- 2AET level (Example 13 single phase depilatory in HDPE (half), 3 months/40° C.): 5.9%
- 2AET level (Example 13 single phase depilatory in HDPE (half), initial): 7.1%
- 2AET level (Example 13 single phase depilatory in aluminum can with bag-on-valve, 1 month/40° C.): 7.3%
- 2AET level (Example 13 single phase depilatory in aluminum can with bag-on-valve, 3 months/40° C.): 7.3%
- 2AET level (Example 13 single phase depilatory in aluminum can with bag-on-valve, initial): 7.3%
